In patent US20240124427A1, “HYDROXYHETEROCYCLOALKANE-CARBAMOYL DERIVATIVES” (Idorsia Pharmaceuticals Ltd, priority 2021, published 2024):

What follows are compounds tested against human Gal-3 (hGal-3) (Homo sapiens (Human), UniProt P17931) (assay: Competitive binding assay: biotinylated hGal-3 binding to microplate-adsorbed asialofetuin (ASF)). Details: Activity on hGal-3; mean values of several measurements; mixture of diastereomers measured where not separated.
Experimental: The inhibitory activity of compounds is determined in competitive binding assays. This spectrophotometric assay measures the binding of biotinylated human Gal-3 (hGal-3) or human Gal-1 (hGal-1), respectively, to a microplate-adsorbed glycoprotein, asialofetuin (ASF) (Proc Natl Acad Sci USA. 2013 Mar 26;110(13):5052-7.). Alternatively, and preferably, a human Gal-1 version in which all six cysteines are substituted by serines may be used.
Briefly, compounds are serially diluted in DMSO (working dilutions).
Plates are incubated for 3 hours at 4° C., then washed with cold assay buffer (3×50 uL), incubated for 1 hour with 25 μL/well of a streptavidin-peroxidase solution (diluted in assay buffer to 80 ng/mL) at 4° C., followed by further washing steps with assay buffer (3×50 uL). Finally, 25 μL/well of ABTS substrate is added.
The calculated IC50 values may fluctuate depending on the daily assay performance. Fluctuations of this kind are known to those skilled in the art. IC50 values from several measurements are given as mean values.

human Gal-3 (hGal-3), sequence (P17931 whole entry): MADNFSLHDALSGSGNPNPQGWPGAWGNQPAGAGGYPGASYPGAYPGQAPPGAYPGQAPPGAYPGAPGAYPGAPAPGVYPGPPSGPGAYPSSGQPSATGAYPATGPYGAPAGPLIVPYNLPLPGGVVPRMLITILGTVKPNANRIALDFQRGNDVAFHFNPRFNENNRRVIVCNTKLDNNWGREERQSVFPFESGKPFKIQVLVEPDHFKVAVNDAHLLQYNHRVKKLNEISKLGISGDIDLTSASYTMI

SMILES	IC50
CO[C@@H]1[C@@H](n2cc(-c3ccc(Br)c(F)c3F)nn2)[C@@H](O)[C@@H](CO)O[C@H]1C(=O)N(c1cc(Cl)cc(Cl)c1)[C@@H]1COC[C@H]1O [Example 41, (2R,3R,4S,5R,6R)-4-(4-(4-bromo-2,3-difluorophenyl)-1H-1,2,3-triazol-1-yl)-N-(3,5-dichlorophenyl)-5-hydroxy-6-(hydroxymethyl)-N-((3R,4S)-4-hydroxytetrahydrofuran-3-yl)-3-methoxytetrahydro-2H-pyran-2-carboxamide]	63 nM
CO[C@@H]1[C@@H](n2cc(-c3ccc(Br)c(F)c3F)nn2)[C@@H](O)[C@@H](CO)O[C@H]1C(=O)N(c1cc(Br)cc(C#N)c1)[C@@H]1COC[C@H]1O [Example 42, (2R,3R,4S,5R,6R)-4-(4-(4-bromo-2,3-difluorophenyl)-1H-1,2,3-triazol-1-yl)-N-(3-bromo-5-cyanophenyl)-5-hydroxy-6-(hydroxymethyl)-N-((3R,4S)-4-hydroxytetrahydrofuran-3-yl)-3-methoxytetrahydro-2H-pyran-2-carboxamide]	37 nM
CO[C@@H]1[C@@H](n2cc(-c3ccc(Br)c(F)c3F)nn2)[C@@H](O)[C@@H](CO)O[C@H]1C(=O)N(c1cc(C)cc(Br)c1)[C@@H]1COC[C@H]1O [Example 43, (2R,3R,4S,5R,6R)-4-(4-(4-bromo-2,3-difluorophenyl)-1H-1,2,3-triazol-1-yl)-N-(3-bromo-5-methylphenyl)-5-hydroxy-6-(hydroxymethyl)-N-((3R,4S)-4-hydroxytetrahydrofuran-3-yl)-3-methoxytetrahydro-2H-pyran-2-carboxamide]	33 nM
CO[C@@H]1[C@@H](n2cc(-c3cc(F)c(C)c(F)c3)nn2)[C@@H](O)[C@@H](CO)O[C@H]1C(=O)N(c1cc(Cl)cc(Cl)c1)[C@@H]1COC[C@H]1O [Example 44, (2R,3R,4S,5R,6R)-N-(3,5-dichlorophenyl)-4-(4-(3,5-difluoro-4-methylphenyl)-1H-1,2,3-triazol-1-yl)-5-hydroxy-6-(hydroxymethyl)-N-((3R,4S)-4-hydroxytetrahydrofuran-3-yl)-3-methoxytetrahydro-2H-pyran-2-carboxamide]	81 nM
CO[C@@H]1[C@@H](n2cc(-c3cc(F)c(C)c(F)c3)nn2)[C@@H](O)[C@@H](CO)O[C@H]1C(=O)N(c1cc(Br)cc(Br)c1)[C@@H]1COC[C@H]1O [Example 45, (2R,3R,4S,5R,6R)-N-(3,5-dibromophenyl)-4-(4-(3,5-difluoro-4-methylphenyl)-1H-1,2,3-triazol-1-yl)-5-hydroxy-6-(hydroxymethyl)-N-((3R,4S)-4-hydroxytetrahydrofuran-3-yl)-3-methoxytetrahydro-2H-pyran-2-carboxamide]	59 nM
CO[C@@H]1[C@@H](n2cc(-c3cc(F)c(C)c(F)c3)nn2)[C@@H](O)[C@@H](CO)O[C@H]1C(=O)N(c1cc(Br)cc(C#N)c1)[C@@H]1COC[C@H]1O [Example 46, (2R,3R,4S,5R,6R)-N-(3-bromo-5-cyanophenyl)-4-(4-(3,5-difluoro-4-methylphenyl)-1H-1,2,3-triazol-1-yl)-5-hydroxy-6-(hydroxymethyl)-N-((3R,4S)-4-hydroxytetrahydrofuran-3-yl)-3-methoxytetrahydro-2H-pyran-2-carboxamide]	81 nM
CO[C@@H]1[C@@H](n2cc(-c3cc(F)c(C)c(F)c3)nn2)[C@@H](O)[C@@H](CO)O[C@H]1C(=O)N(c1cc(C)cc(Br)c1)[C@@H]1COC[C@H]1O [Example 47, (2R,3R,4S,5R,6R)-N-(3-bromo-5-methylphenyl)-4-(4-(3,5-difluoro-4-methylphenyl)-1H-1,2,3-triazol-1-yl)-5-hydroxy-6-(hydroxymethyl)-N-((3R,4S)-4-hydroxytetrahydrofuran-3-yl)-3-methoxytetrahydro-2H-pyran-2-carboxamide]	72 nM
CO[C@@H]1[C@@H](n2cc(-c3ccc(C)c(F)c3F)nn2)[C@@H](O)[C@@H](CO)O[C@H]1C(=O)N(c1cc(Cl)cc(Cl)c1)[C@@H]1COC[C@H]1O [Example 48, (2R,3R,4S,5R,6R)-N-(3,5-dichlorophenyl)-4-(4-(2,3-difluoro-4-methylphenyl)-1H-1,2,3-triazol-1-yl)-5-hydroxy-6-(hydroxymethyl)-N-((3R,4S)-4-hydroxytetrahydrofuran-3-yl)-3-methoxytetrahydro-2H-pyran-2-carboxamide]	29 nM
CO[C@@H]1[C@@H](n2cc(-c3ccc(C)c(F)c3F)nn2)[C@@H](O)[C@@H](CO)O[C@H]1C(=O)N(c1cc(Br)cc(C#N)c1)[C@@H]1COC[C@H]1O [Example 49, (2R,3R,4S,5R,6R)-N-(3-bromo-5-cyanophenyl)-4-(4-(2,3-difluoro-4-methylphenyl)-1H-1,2,3-triazol-1-yl)-5-hydroxy-6-(hydroxymethyl)-N-((3R,4S)-4-hydroxytetrahydrofuran-3-yl)-3-methoxytetrahydro-2H-pyran-2-carboxamide]	18 nM
CO[C@@H]1[C@@H](n2cc(-c3ccc(C)c(F)c3F)nn2)[C@@H](O)[C@@H](CO)O[C@H]1C(=O)N(c1cc(C)cc(Br)c1)[C@@H]1COC[C@H]1O [Example 50, (2R,3R,4S,5R,6R)-N-(3-bromo-5-methylphenyl)-4-(4-(2,3-difluoro-4-methylphenyl)-1H-1,2,3-triazol-1-yl)-5-hydroxy-6-(hydroxymethyl)-N-((3R,4S)-4-hydroxytetrahydrofuran-3-yl)-3-methoxytetrahydro-2H-pyran-2-carboxamide]	34 nM
CO[C@@H]1[C@@H](n2cc(-c3cc(F)c(Cl)c(F)c3)nn2)[C@@H](O)[C@@H](CO)O[C@H]1C(=O)N(c1cc(Cl)cc(Cl)c1)[C@@H]1COC[C@H]1O [Example 51, (2R,3R,4S,5R,6R)-4-(4-(4-chloro-3,5-difluorophenyl)-1H-1,2,3-triazol-1-yl)-N-(3,5-dichlorophenyl)-5-hydroxy-6-(hydroxymethyl)-N-((3R,4S)-4-hydroxytetrahydrofuran-3-yl)-3-methoxytetrahydro-2H-pyran-2-carboxamide]	73 nM
CO[C@@H]1[C@@H](n2cc(-c3cc(F)c(Cl)c(F)c3)nn2)[C@@H](O)[C@@H](CO)O[C@H]1C(=O)N(c1cc(Br)cc(Br)c1)[C@@H]1COC[C@H]1O [Example 52, (2R,3R,4S,5R,6R)-4-(4-(4-chloro-3,5-difluorophenyl)-1H-1,2,3-triazol-1-yl)-N-(3,5-dibromophenyl)-5-hydroxy-6-(hydroxymethyl)-N-((3R,4S)-4-hydroxytetrahydrofuran-3-yl)-3-methoxytetrahydro-2H-pyran-2-carboxamide]	86 nM
CO[C@@H]1[C@@H](n2cc(-c3cc(F)c(Cl)c(F)c3)nn2)[C@@H](O)[C@@H](CO)O[C@H]1C(=O)N(c1cc(C)cc(Br)c1)[C@@H]1COC[C@H]1O [Example 54, (2R,3R,4S,5R,6R)-N-(3-bromo-5-methylphenyl)-4-(4-(4-chloro-3,5-difluorophenyl)-1H-1,2,3-triazol-1-yl)-5-hydroxy-6-(hydroxymethyl)-N-((3R,4S)-4-hydroxytetrahydrofuran-3-yl)-3-methoxytetrahydro-2H-pyran-2-carboxamide]	89 nM
CO[C@@H]1[C@@H](n2cc(-c3ccc(Cl)c(Cl)c3)nn2)[C@@H](O)[C@@H](CO)O[C@H]1C(=O)N(c1cc(Cl)cc(Cl)c1)[C@@H]1COC[C@H]1O [Example 55, (2R,3R,4S,5R,6R)-N-(3,5-dichlorophenyl)-4-(4-(3,4-dichlorophenyl)-1H-1,2,3-triazol-1-yl)-5-hydroxy-6-(hydroxymethyl)-N-((3R,4S)-4-hydroxytetrahydrofuran-3-yl)-3-methoxytetrahydro-2H-pyran-2-carboxamide]	164 nM
CO[C@@H]1[C@@H](n2cc(-c3ccc(Cl)c(Cl)c3)nn2)[C@@H](O)[C@@H](CO)O[C@H]1C(=O)N(c1cc(Br)cc(Br)c1)[C@@H]1COC[C@H]1O [Example 56, (2R,3R,4S,5R,6R)-N-(3,5-dibromophenyl)-4-(4-(3,4-dichlorophenyl)-1H-1,2,3-triazol-1-yl)-5-hydroxy-6-(hydroxymethyl)-N-((3R,4S)-4-hydroxytetrahydrofuran-3-yl)-3-methoxytetrahydro-2H-pyran-2-carboxamide]	222 nM
CO[C@@H]1[C@@H](n2cc(-c3ccc(Cl)c(Cl)c3)nn2)[C@@H](O)[C@@H](CO)O[C@H]1C(=O)N(c1cc(Br)cc(C#N)c1)[C@@H]1COC[C@H]1O [Example 57, (2R,3R,4S,5R,6R)-N-(3-bromo-5-cyanophenyl)-4-(4-(3,4-dichlorophenyl)-1H-1,2,3-triazol-1-yl)-5-hydroxy-6-(hydroxymethyl)-N-((3R,4S)-4-hydroxytetrahydrofuran-3-yl)-3-methoxytetrahydro-2H-pyran-2-carboxamide]	151 nM
CO[C@@H]1[C@@H](n2cc(-c3ccc(Cl)c(Cl)c3)nn2)[C@@H](O)[C@@H](CO)O[C@H]1C(=O)N(c1cc(C)cc(Br)c1)[C@@H]1COC[C@H]1O [Example 58, (2R,3R,4S,5R,6R)-N-(3-bromo-5-methylphenyl)-4-(4-(3,4-dichlorophenyl)-1H-1,2,3-triazol-1-yl)-5-hydroxy-6-(hydroxymethyl)-N-((3R,4S)-4-hydroxytetrahydrofuran-3-yl)-3-methoxytetrahydro-2H-pyran-2-carboxamide]	175 nM
CO[C@@H]1[C@@H](n2cc(-c3cc(F)c(F)c(F)c3)nn2)[C@@H](O)[C@@H](CO)O[C@H]1C(=O)N(c1cc(Cl)cc(Cl)c1)[C@H]1CNC[C@@H]1O [Example 59, (2R,3R,4S,5R,6R)-N-(3,5-dichlorophenyl)-5-hydroxy-6-(hydroxymethyl)-N-((3S,4S)-4-hydroxypyrrolidin-3-yl)-3-methoxy-4-(4-(3,4,5-trifluorophenyl)-1H-1,2,3-triazol-1-yl)tetrahydro-2H-pyran-2-carboxamide]	23 nM
